Earlier results as cited in patent US20050100594A1, “Pharmaceutical formulation containing muscle relaxant and COX-II inhibitor” (priority 2003, published 2005).
Counter-ions that a name gives are not always drawn.

Tested on: skeletal muscle fibers, neuromuscular junction, monosynaptic spinal reflexes
Conditions: animal models

Clc1ccc2nsnc2c1NC1=NCCN1 [Tizanidine, 5-chloro-4-(2-imidazolin-2-ylamino)-2,1,3-benzothiodiazole hydrochloride]
effect on monosynaptic spinal reflexes: no major effect | effect on skeletal muscle fibers or the neuromuscular junction: no direct effect
